{"source": "patent US9849131B2", "about": "(AUTIFONY THERAPEUTICS LIMITED, priority 2009, dated 2017)", "key": {"common marmosets": {"test_system": "common marmosets", "experiment": "Behaviour of the common marmoset on threatening human approach (Example 94)", "format": "in vivo", "conditions": "for Number of Jumps / Number of postures: 2 minute test, mean ± sem", "excerpt": "Central anxiolytic effects of a test compound can be assessed from the ability of the compound to reduce the characteristic defensive postures of marmosets in response to a threatening approach by a human. The test can also be used to assess the sedative or hypnotic effects of a test compound from its ability to reduce the number of jumps made by the animals. The study was based on the method described in Costall, B. et al (1988) Br. J. Pharmac. 95 p 475P. Laboratory-bred (GSK SpA, Italy) male and female common marmosets over 2 years of age, weighing 300-500 g were used in the study. The animals were caged in couples in a housing room maintained at 25±1° C., 60% humidity, and a 12 hour light/dark cycle (lights on at 0600, with 30 minutes simulated dawn and twilight). Both animals in each pair were involved in the test, which was carried out with the animals in their home cage.\nThe postures recorded in the test were those described by Costall et al supra; • Genital presenting (“Tail Posture”): the animal's back is turned to the observer with elevation of the tail to expose the genital region; • Scent-marking: the animal scent-marks the cage surfaces using circum-anal and circum-genital scent glands; • Slit-stare: the animal stares at the observer with flattened ear tufts and eyes reduced to “slits” • Arch-piloerection: the animal moves around the cage with arched back and full-body piloerection, failing to make eye contact with the observer\nThe number of jumps from the back of the cage to the cage front provided an index of locomotor activity, which could be used to assess the potential for a hypnotic effect, sedation, or locomotor stimulation produced by the test compound."}, "hKv3.2": {"biological_target": "T1, hKv3.2 (Homo sapiens, UniProt Q96PR1)", "T1 construct": "expressed in transfected cells; host or cells: CHO-K1", "T1 sequence (Q96PR1 1-638)": "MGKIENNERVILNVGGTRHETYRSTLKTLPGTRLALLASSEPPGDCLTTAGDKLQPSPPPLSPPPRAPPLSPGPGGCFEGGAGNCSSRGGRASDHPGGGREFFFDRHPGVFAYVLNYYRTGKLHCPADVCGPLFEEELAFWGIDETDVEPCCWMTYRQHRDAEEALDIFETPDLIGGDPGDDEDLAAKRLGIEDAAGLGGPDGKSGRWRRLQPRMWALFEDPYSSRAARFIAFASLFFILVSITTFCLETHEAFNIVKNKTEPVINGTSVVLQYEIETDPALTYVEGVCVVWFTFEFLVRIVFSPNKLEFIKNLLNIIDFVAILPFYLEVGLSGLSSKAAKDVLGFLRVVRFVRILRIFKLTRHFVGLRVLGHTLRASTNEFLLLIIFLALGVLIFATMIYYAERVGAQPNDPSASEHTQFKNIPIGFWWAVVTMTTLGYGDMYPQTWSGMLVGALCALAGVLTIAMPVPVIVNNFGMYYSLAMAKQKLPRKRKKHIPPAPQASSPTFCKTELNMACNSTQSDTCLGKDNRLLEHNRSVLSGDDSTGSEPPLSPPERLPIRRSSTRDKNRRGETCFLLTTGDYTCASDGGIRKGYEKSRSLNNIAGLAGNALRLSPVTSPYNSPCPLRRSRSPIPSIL", "experiment": "IonWorks Quattro assay, secondary analysis of activation time constant (Tauact)", "format": "cell-based", "conditions": "classification from effect on Tauact", "protocol": "A stable cell line expressing human Kv3.2 channels (hKv3.2) was created by transfecting Chinese Hamster Ovary (CHO)-K1 cells with a pCIH5-hKv3.2 vector. Cells were cultured in DMEM/F12 medium supplemented by 10% Foetal Bovine Serum, 1× non-essential amino acids (Invitrogen) and 500 ug/ml of Hygromycin-B (Invitrogen). Cells were grown and maintained at 37° C. in a humidified environment containing 5% CO2 in air.\nThe day of the experiment, cells were removed from the incubator and the culture medium removed. Cells were washed with 5 ml of Dulbecco's PBS (DPBS) calcium and magnesium free and detached by the addition of 3 ml Versene (Invitrogen, Italy) followed by a brief incubation at 37° C. for 5 minutes. The flask was tapped to dislodge cells and 10 ml of DPBS containing calcium and magnesium was added to prepare a cell suspension. The cell suspension was then placed into a 15 ml centrifuge tube and centrifuged for 2 min at 1200 rpm. After centrifugation, the supernatant was removed and the cell pellet re-suspended in 4 ml of DPBS containing calcium and magnesium using a 5 ml pipette to break […] up the pellet. Cell suspension volume was then corrected to give a cell concentration for the assay of approximately 3 million cells per ml.\nExperiments were conducted at room temperature using IonWorks Quattro™ planar array electrophysiology technology (Molecular Devices Corp.) with PatchPlate™ PPC. Stimulation protocols and data acquisition were carried out using a microcomputer (Dell Pentium 4). Planar electrode hole resistances (Rp) were determined by applying a 10 mV voltage step across each well. These measurements were performed before cell addition. […] Following this, amphotericin-B solution was added to the intracellular face of the electrode to achieve intracellular access. Cells were held at −70 mV. Leak subtraction was conducted in all experiments by applying 50 ms hyperpolarizing (10 mV) prepulses to evoke leak currents followed by a 20 ms period at the holding potential before test pulses. From the holding potential of −70 mV, a first test pulse to −15 mV was applied for 100 ms and following a further 100 ms at −70 mV, a second pulse to 40 mV was applied for 50 ms. Cells were then maintained for a further 100 ms at −100 mV and then a voltage ramp from −100 mV to 40 mV was applied over 200 ms. In all experiments, the test pulses protocol was performed in the absence (pre-read) and presence (post-read) of the test compound. Pre- and post-reads were separated by the compound addition followed by a 3 minute incubation.\nThe magnitude of the effect of a compound can be determined from the time constant (Tauact) obtained from a non-linear fit, using the equation given below, of the rise in Kv3.1 or Kv3.2 currents following the start of the depolarising voltage pulse. Y=(Y0−Ymax)*exp(−K*X)+Ymax\nWhere: • Y0 is the current value at the start of the depolarising voltage pulse; • Ymax is the plateau current;\nK is the rate constant, and Tauact is the activation time constant, which is the reciprocal of K."}, "Male CD-1 mice": {"test_system": "Male CD-1 mice", "experiment": "Psychostimulant (amphetamine)-induced hyperactivity in mice (Example 93)", "conditions": "mouse; for Total Distance Travelled (cm): 60 minutes, mean ± sem"}, "[1]": {"conditions": "0.3 mg/kg p.o. 2 hours before test"}, "[2]": {"conditions": "1 mg/kg p.o. 2 hours before test"}, "[3]": {"conditions": "3 mg/kg p.o. 2 hours before test"}}}
{"smiles": "CC[C@H]1NC(=O)N(c2ccc(Oc3ccc(C)c(OC)c3)nc2)C1=O", "note": "[Example 19, (5R)-5-ethyl-3-(6-{[4-methyl-3-(methyloxy)phenyl]oxy}-3-pyridinyl)-2,4-imidazolidinedione]", "values": [{"measurement": "Number of Jumps", "setting": "common marmosets; [1]", "value": "21.3 ± 2.7"}, {"measurement": "Number of postures", "setting": "common marmosets; [1]", "value": "12.2 ± 1.03"}, {"measurement": "effect on the number of jumps", "setting": "common marmosets; 1 mg/kg p.o.", "value": "significantly reduced"}, {"measurement": "Number of Jumps", "setting": "common marmosets; [2]", "value": "15.3 ± 2.5"}, {"measurement": "Number of postures", "setting": "common marmosets; [2]", "value": "10.0 ± 1.2"}, {"measurement": "effect on the number of jumps", "setting": "common marmosets; 3 mg/kg p.o.", "value": "significantly reduced"}, {"measurement": "Number of Jumps", "setting": "common marmosets; [3]", "value": "11.5 ± 1.9"}, {"measurement": "Number of postures", "setting": "common marmosets; [3]", "value": "9.7 ± 1.1"}, {"measurement": "effects on postures", "setting": "common marmosets; any dose (0.3, 1, 3 mg/kg p.o.)", "value": "without any effects"}, {"measurement": "acts as positive or negative modulator of Kv3.1 and/or Kv3.2", "setting": "hKv3.2", "value": "positive modulators"}, {"measurement": "effect on the increase in total distance travelled produced by amphetamine", "setting": "Male CD-1 mice; 30 mg/kg p.o.", "value": "significantly reduced"}, {"measurement": "effect on the increase in locomotor activity induced by amphetamine", "setting": "Male CD-1 mice; 60 mg/kg p.o., similar to clozapine 3 mg/kg i.p.", "value": "further reduced"}, {"measurement": "Total Distance Travelled (cm)", "setting": "Male CD-1 mice; AMPH 2 mg/kg i.p. + compound 30 mg/kg p.o. 30 minutes before", "value": "5790 ± 1436", "unit": "cm"}, {"measurement": "Total Distance Travelled (cm)", "setting": "Male CD-1 mice; AMPH 2 mg/kg i.p. + compound 60 mg/kg p.o. 30 minutes before", "value": "1494 ± 378", "unit": "cm"}]}
